Experimental data as given in patent EP0257454A1, “Oil-in-water type fat emulsion of 1-[2-(2,4-dichlorophenyl)-3-methyl-1-pentenyl]-1H-imidazole” (MORISHITA PHARMACEUTICAL CO. LTD., priority 1986, dated 1988).

Test system: Candida albicans (clinically isolated strain)
Assay: Activity against Candida albicans infection in mice (survival days)
Type: in vivo
Details: Mice infected with Candida albicans, tail vein injection; summary of Table 1
Procedure: Activity against Candia albicans: Male CRJ:ICR mice (5 week age, 10 mice per group) were used. The fat emulsion obtained in Example 1; an injection solution (HCO 60 preparation) wherein the compound [I] was dissolved in a concentration of 2 % (w/v) in an aqueous solution of 10 % (w/v) of polyoxyethylene hydrogenated castor oil and 5 % (w/v) of glucose; and a solvent for the HCO 60 preparation (i.e. an aqueous solution of 10 % (w/v) of polyoxyethylene hydrogenated castor oil and 5 % (w/v) of glucose (as a control) The test mice was infected with Candida albicans (clinically isolated strain) by injecting the microorganism in an amount of 5 x 10^6 cells/mouse through the tail vein. One hour after the infection, the test injection products were each injected through the tail vein, and the survival days of mice were measured. The evaluation of effect was calculated by the following formula: Average survival days in each test group T/C = x 100 Average survival days in control group

CCC(C)C(=Cn1ccnc1)c1ccc(Cl)cc1Cl (stereo not shown) [compound [I], 1-[2-(2,4-dichlorophenyl)-3-methyl-1-pentenyl]-1H-imidazole]
effect against the infection (in words): remarkedly excellent effect against the infection
